Key:
CPA cells = experiment: Absorption and emission spectra of cell lysates after incubating cells with the substrate; type: cell-based; details: CPA cells incubated with compound (5 μM) for 1 h, lysed with 1% Triton X-100; pH=9.0 buffer
Protocol: CPA cells are incubated with Compound ES1 (5 μM) for 1 h, and lysed with 1% Triton® X-100. The cell lysates from the enzymatic hydrolysis of Compound ES1 have a maximum absorption around 409 nm, which matches very well the 405 nm violet laser excitation of a typical flow cytometer.
CPA cells are incubated with Compound ES7 (5 μM) for 1 h, and lysed with 1% Triton® X-100. The cell lysates from the enzymatic hydrolysis of ES7 have a maximum absorption around 416 nm, which matches very well the 405 nm violet laser excitation of a typical flow cytometer.

intracellular esterases = experiment: Relative stability and cleavage by intracellular esterases
Source text: Chemically reactive enzyme substrate compounds will covalently attach to a corresponding functional group of cell components, forming the complexes of enzyme substrates-cell components or enzyme products-cell components. Using enzyme substrate compounds to label reactive sites on the surface of cells, in cell membranes or in intracellular compartments such as organelles, or in the cell's cytoplasm, permits the determination of their presence or quantity, accessibility, or their spatial and temporal distribution in the sample. […] Photoreactive enzyme substrates can be used similarly to photolabel components of the outer membrane of biological cells or as photo-fixable polar tracers for cells.

Jurkat cells = experiment: Flow cytometric monitoring of cell proliferation after dye loading; type: cell-based; details: Jurkat cells loaded with 5 μM dye loading solution at 37° C. for 1 hour; flow cytometric analysis
Protocol: Compound ES 9 is dissolved in anhydrous DMSO to make 5 mM stock solution, and diluted in PBS buffer to make 5 μM dye loading solution. Jurkat cells are loaded with the dye loading solution of Compound ES9 at 37° C. for 1 hour. The cells are washed with PBS buffer to remove serum. The resulted cells are cultured and passed for flow cytometric analysis as desired. Compound ES9 is used to monitor cell proliferation of nine passages.
ES compounds are retained by cells and shared by the daughter cells at each division, resulting in multimodal flow cytometric ES staining histograms, with each cell generation clustering around half the fluorescence intensity of the previous one. ES compounds are dissolved in anhydrous DMSO, and the stock solutions are used promptly. To prepare the cell working solutions (from 1 to 100 μM) the DMSO stock solutions of ES compounds are diluted with Hanks and 20 mM Hepes buffer (HHBS, pH 7 with 0.02% PF-127). The Jurkat cells are treated with test compounds for a desired period of time, and centrifuged give 1-5×10^5 cells per tube. The cells are resuspended in 500 μL of the ES compound working solutions, and incubated at room temperature or 37° C. for 5 to 10 min. […] The fluorescence of ES compound staining are monitored at Ex/Em=405/450 nm, 405/500 nm or 405/550 nm with a fluorescence microscope or a flow cytometer.

Row | Structure (SMILES) | stability relative to Compound ES 18 (intracellular esterases) | also measured
1 | CC(=O)Oc1cc2oc(=O)c(C(=O)ON3C(=O)CCC3=O)cc2cc1Cl [ES1] | more stable than Compound ES 18 | maximum absorption of cell lysates from the enzymatic hydrolysis (CPA cells): around 409 nm
2 | CC(=O)Oc1c(Cl)cc2cc(C(=O)NCCCCCN3C(=O)C=CC3=O)c(=O)oc2c1F [ES7] |  | maximum absorption of cell lysates from the enzymatic hydrolysis (CPA cells): around 416 nm
3 | CC(=O)Oc1cc2oc(=O)c(-c3ccc(CCCCCC(=O)NCCN4C(=O)C=CC4=O)s3)cc2cc1Cl [Compound 10] | more stable than Compound ES 18 | 
4 | CC(=O)Oc1cc2oc(=O)c(-c3ccc(CCCCCC(=O)ON4C(=O)CCC4=O)s3)cc2cc1Cl [Compound 9] | more stable than Compound ES 18 | 
5 | CC(=O)Oc1cc2oc(=O)c(-c3ccc(CCCCCC(=O)ON4C(=O)CCC4=O)s3)cc2cc1Cl [ES9] |  | passages over which cell proliferation is monitored (Jurkat cells): nine
6 | CC(=O)Oc1c(F)cc2cc(C(=O)ON3C(=O)CCC3=O)c(=O)oc2c1F [ES18] |  | cleavage by intracellular esterases (intracellular esterases): cleaved by intracellular esterases more slowly
7 | CC(=O)OCOc1c(Cl)cc2cc(C(=O)ON3C(=O)CCC3=O)c(=O)oc2c1Cl [Compound 5] | more stable than Compound ES 18 | 
